Assay results taken from patent US6829540B1, “Drug discovery using multiple membrane mimetic affinities” (priority 1997, dated 2004).
Where two headings read alike, the source gives them in different places.

Key:
[1] = cited from earlier work
[2] = HPLC membrane binding on immobilized artificial membrane IAM.SM; assay type: physicochemical; conditions: for Membrane binding properties IAM.SM: Table 1; for Membrane affinity IAM.SM: Ln weighted, Table 3
Procedure: (§1) The analysis is made by pattern matching membrane binding constants measured on immobilized artificial membrane columns in a high performance liquid chromatography system. Two or more immobilized artificial membrane chromatographic columns are used. Each test compound is injected and chromatographed on each column and the peak width and the peak time of the test compound is recorded and normalized to an internal or external standard. Thus experimentally measured selectivity values (αk′=k′/k′ standard) and normalized standard deviations (αsd=σ/σstandard) were calculated for both the test compounds and compounds of known biological properties. Pattern matching using vector calculus, multivariate analysis or principal component analysis of the αk′ and αsd values of the test compound and the control compounds allows comparison of the membrane binding properties of the test compounds and each of the control compounds or, if the control compounds all have a common biological activity/property, average or mean membrane binding values of the set of control compounds for each membrane surface.
(§2) Membrane binding constants (k′ values) are calculated in accordance with the formula k′=(tr−t0)/t0 wherein tr is the retention time and t0 is the dead time obtained from each injection; however, t0 in the denominator was obtained by averaging the experimentally determined t0 from all injections for each day the data are collected.
(§3) The use of chromatography on immobilized artificial membranes provides data characteristic of both equilibrium binding to the respective membrane mimetic surface (k′ values) and the kinetics of mass transfer between the immobilized artificial membrane surface and the mobile phase (i.e. δ values). […] This unavoidable variation in the experimentally determined k′ and δ values for each test compound and each control compound is eliminated, for pattern matching purposes, by normalizing k′ and δ values to an internal or external standard compound chromatographed on each immobilized artificial membrane column. Thus k′ and δ values for the test compounds are each divided by the respective k′ and δ values of the standard to calculate αk′ and αsd, the selectivity values and normalized standard deviations, respectively. For k′ values, α denotes the selectivity of the immobilized artificial membrane chromatographic surface for molecular recognition of the analyte; α is a thermodynamic property and corresponds to a ratio of membrane partition coefficients.
(§4) Thus, in one embodiment of this invention the membrane binding properties of six hallucinogens were measured on immobilized artificial membranes (IAMs) prepared from phosphatidylcholine (IAM.PC), phosphatidylserine (IAM.PS), phosphatidylethanolamine (IAM.PE), and sphingomyelin (IAM.SM). Mean vectors were calculated for several therapeutic classes of compounds. The calculated mean vector (i.e., the average vector representing a group of compounds with similar biological activity) is shown in Table 1 for hallucinogenic compounds.
(§5) In one embodiment of this invention membrane binding constants are measured by injecting the drugs into high performance liquid chromatographs (HPLC) using immobilized artificial membrane (IAM) columns using the following IAM stationary phases:
(§6) ^esterIAM.PC^C10/C3, ^esterIAM.PE^C10/C3, ^esterIAM.PS^C10/C3, and ^esterIAM.SM^C10/C3
(§7) The peak position of the drug in the chromatogram is a measure of the affinity of the compound for the immobilized membrane surface. The retention time (peak time) was used to calculate the capacity factor, k′, of the compound for the IAM surface. Capacity factors are proportional to equilibrium membrane binding constants K according to
(§8) Membrane binding data (numerical values relating to interaction with membranes or membrane mimetic surfaces) were obtained using HPLC chromatography on a multiplicity of membrane mimetic surfaces, preferably immobilized artificial membranes (IAMs). […]

[3] = HPLC membrane binding on immobilized artificial membrane IAM.PC; assay type: physicochemical; conditions: for Membrane binding properties IAM.PC: Table 1; for Membrane affinity IAM.PC: Ln weighted, Table 3
Procedure: as §1, §2, §3, §4, §5, §6, §7, §8

[4] = HPLC membrane binding on immobilized artificial membrane IAM.PS; assay type: physicochemical; conditions: for Membrane binding properties IAM.PS: Table 1; for Membrane affinity IAM.PS: Ln weighted, Table 3
Procedure: as §1, §2, §3, §4, §5, §6, §7, §8

[5] = HPLC membrane binding on immobilized artificial membrane IAM.PE; assay type: physicochemical; conditions: for Membrane binding properties IAM.PE: Table 1; for Membrane affinity IAM.PE: Ln weighted, Table 3
Procedure: as §1, §2, §3, §4, §5, §6, §7, §8

[6] = Table 7, compounds completely absorbed
[7] = Table 8, high oral absorption training set
[8] = Table 6, low oral absorption training set
[9] = Table 9, compounds with low oral absorption

O=C1CN=C(c2ccccc2Cl)c2cc([N+](=O)[O-])ccc2N1 [clonazepam]
Oral Absorption (%) [1, 6]: 98% | Oral Absorption (%) [1, 7]: 98%

COc1cc(CCNC(C)=O)cc(OC)c1OC [n-acetylmescaline]
Membrane binding properties IAM.SM [2]: 1.051 | Membrane binding properties IAM.PC [3]: 0.706 | Membrane binding properties IAM.PS [4]: 0.736 | Membrane binding properties IAM.PE [5]: 1.323

COc1cc([C@@H]2c3cc4c(cc3[C@@H](O[C@@H]3O[C@@H]5CO[C@@H](C)O[C@H]5[C@H](O)[C@H]3O)[C@H]3COC(=O)[C@H]23)OCO4)cc(OC)c1O [etoposide]
Oral Absorption (%) [1, 8]: 50% | Oral Absorption (%) [1, 9]: 50%

COc1cc(CC(C)N)c(OC)cc1I (stereo not drawn) [DOI]
Membrane affinity IAM.SM [2]: 2.14 | Membrane affinity IAM.PC [3]: 2.61 | Membrane affinity IAM.PS [4]: 6.13 | Membrane affinity IAM.PE [5]: 3.73

COc1cc(CCN)cc(OC)c1OC [mescaline]
Membrane affinity IAM.SM [2]: −0.715 | Membrane binding properties IAM.SM [2]: 2.074 | Membrane affinity IAM.PC [3]: −0.477 | Membrane binding properties IAM.PC [3]: 1.476 | Membrane affinity IAM.PS [4]: 2.43 | Membrane binding properties IAM.PS [4]: 12.280 | Membrane affinity IAM.PE [5]: 0.670 | Membrane binding properties IAM.PE [5]: 2.134

CCCC(=O)Nc1ccc(OCC(O)CNC(C)C)c(C(C)=O)c1 (stereo not drawn) [acebutolol]
Oral Absorption (%) [1, 8]: 37% | Oral Absorption (%) [1, 9]: 37%

CN(C)CCc1c[nH]c2cccc(O)c12 [psilocin]
Membrane affinity IAM.SM [2]: 0.502 | Membrane binding properties IAM.SM [2]: 7.532 | Membrane affinity IAM.PC [3]: 0.900 | Membrane binding properties IAM.PC [3]: 4.656 | Membrane affinity IAM.PS [4]: 2.80 | Membrane binding properties IAM.PS [4]: 4.941 | Membrane affinity IAM.PE [5]: 1.79 | Membrane binding properties IAM.PE [5]: 4.818

CNC1(c2ccccc2Cl)CCCCC1=O (stereo not drawn) [ketamine]
Oral Absorption (%) [1, 8]: 20% | Oral Absorption (%) [1, 9]: 20%

COc1cc(C[C@@H](C)N)c(OC)cc1I [(R)-2,5-dimethoxy-4-iodoamphetamine]
Membrane binding properties IAM.SM [2]: 53.41 | Membrane binding properties IAM.PC [3]: 55.53 | Membrane binding properties IAM.PS [4]: 260.200 | Membrane binding properties IAM.PE [5]: 29.76

CNC1=Nc2ccc(Cl)cc2C(c2ccccc2)=[N+]([O-])C1 [chlorodiazepoxide, chlordiazepoxide]
Oral Absorption (%) [1, 6]: 100% | Oral Absorption (%) [1, 7]: 100%

COc1cc(CC(C)N)c(OC)cc1Br (stereo not drawn) [2,5-dimethoxy-4-bromoamphetamine]
Membrane affinity IAM.SM [2]: 1.62 | Membrane binding properties IAM.SM [2]: 20.970 | Membrane affinity IAM.PC [3]: 2.07 | Membrane binding properties IAM.PC [3]: 15.260 | Membrane affinity IAM.PS [4]: 4.68 | Membrane binding properties IAM.PS [4]: 143.400 | Membrane affinity IAM.PE [5]: 3.22 | Membrane binding properties IAM.PE [5]: 20.950

C[C@]12C[C@H](O)[C@H]3[C@@H](CCC4=CC(=O)CC[C@@]43C)[C@@H]1CC[C@@H]2C(=O)CO [corticosterone]
Oral Absorption (%) [1, 6]: 100% | Oral Absorption (%) [1, 7]: 100%

Clc1cccc(Cl)c1N=C1NCCN1 [clonidine]
Oral Absorption (%) [1, 6]: 95% | Oral Absorption (%) [1, 7]: 95%

O=C1NC(=O)C(c2ccccc2)(c2ccccc2)N1 [phenytoin]
Oral Absorption (%) [1, 6]: 100% | Oral Absorption (%) [1, 7]: 100%

CCN1CCCC1CNC(=O)c1cc(S(N)(=O)=O)ccc1OC (stereo not drawn) [sulpiride]
Oral Absorption (%) ([1]; in vivo, po): 36%

CCOC(=O)C(C)(C)Oc1ccc(Cl)cc1 [clofibrate]
Oral Absorption (%) [1, 6]: 95% | Oral Absorption (%) [1, 7]: 95%

CCC1(c2ccccc2)C(=O)NC(=O)NC1=O [phenobarbital]
Oral Absorption (%) [1, 6]: 100% | Oral Absorption (%) [1, 7]: 100%

CC(N)Cc1ccc2c(c1)OCO2 (stereo not drawn) [MDA, 3,4-methylendioxyamphetamine]
Membrane affinity IAM.SM [2]: −0.0647 | Membrane affinity IAM.PC [3]: 0.298 | Membrane affinity IAM.PS [4]: 3.28 | Membrane affinity IAM.PE [5]: 1.32

CNC(=C[N+](=O)[O-])NCCSCc1ccc(CN(C)C)o1 [ranitidie, ranitidine]
Oral Absorption (%) [1, 8]: 50% | Oral Absorption (%) [1, 9]: 50%

C=CCc1ccccc1OCC(O)CNC(C)C (stereo not drawn) [alprenolol]
Oral Absorption (%) [1, 6]: 96% | Oral Absorption (%) [1, 7]: 96%

CC(N)Cc1ccc(I)cc1 (stereo not drawn) [p-iodoamphetamine]
Membrane binding properties IAM.SM [2]: 32.410 | Membrane binding properties IAM.PC [3]: 24.880 | Membrane binding properties IAM.PS [4]: 258.100 | Membrane binding properties IAM.PE [5]: 33.660
